What was measured:
Assay type in all cases: functional, cell-based
[1] = system: FaDu; assay: Cytotoxic activity against human FADU cancer stem cells incubated for 72 hrs by Cell-titer-Glo luminescence assay
[2] = system: ACHN; assay: Cytotoxic activity against human ACHN cancer stem cells incubated for 72 hrs by Cell-titer-Glo luminescence assay
[3] = system: FaDu; assay: Cytotoxic activity against human FADU bulk cells incubated for 72 hrs by Cell-titer-Glo luminescence assay
[4] = system: ACHN; assay: Cytotoxic activity against human ACHN bulk cells incubated for 72 hrs by Cell-titer-Glo luminescence assay
[5] = system: A549; assay: Cytotoxic activity against human A549 cancer stem cells incubated for 72 hrs by Cell-titer-Glo luminescence assay; conditions: A549, 72 h
[6] = system: A549; assay: Cytotoxic activity against human A549 bulk cells incubated for 72 hrs by Cell-titer-Glo luminescence assay; conditions: A549, 72 h

O=C1Nc2ccc(-c3csc(-c4ccccc4)n3)cc2/C1=C/c1[nH]cc2ccccc12
IC50 [1]: 5.04 µM
IC50 [2]: 4.08 µM

Cc1cc(C)c(/C=C2\C(=O)Nc3ccc(-c4cnsc4)cc32)[nH]1
IC50 [3]: 26.7 µM
IC50 [4]: 42.8 µM
IC50 [1]: 43.4 µM
IC50 [2]: 17.1 µM

Cc1ccc(-c2ccc3c(c2)NC(=O)/C3=C\c2[nH]c(C)cc2C)cn1
IC50 [4]: 22 µM
IC50 [1]: 3.61 µM
IC50 [5]: 23.7 µM
IC50 [2]: 4.55 µM

CCN(CC)CCNC(=O)c1c(C)[nH]c(/C=C2\C(=O)Nc3ccc(-c4cnc(-c5ccccc5)cn4)cc32)c1C
IC50 [3]: 17.5 µM
IC50 [6]: 16.9 µM
IC50 [4]: 25.8 µM
IC50 [1]: 39.1 µM
IC50 [5]: 43.6 µM

Cc1[nH]c(/C=C2\C(=O)Nc3ccc(-c4cnn(-c5ccccc5)c4)cc32)c(C)c1C(=O)N1CCN(C)CC1
IC50 [3]: 3.62 µM
IC50 [6]: 6.91 µM
IC50 [4]: 3.4 µM
IC50 [1]: 0.31 µM
IC50 [5]: 4.49 µM

CCN(CC)CCNC(=O)c1c(C)[nH]c(/C=C2\C(=O)Nc3ccc(-c4ccc5ccccc5n4)cc32)c1C
IC50 [3]: 0.92 µM
IC50 [6]: 1.8 µM
IC50 [4]: 2.74 µM
IC50 [5]: 1.51 µM
IC50 [2]: 0.33 µM

Cc1ccc(-c2nc(-c3ccc4c(c3)/C(=C/c3[nH]c(C)c(C(=O)N5CCN(C)CC5)c3C)C(=O)N4)cs2)cc1
IC50 [3]: 7.87 µM
IC50 [6]: 8.55 µM
IC50 [4]: 4.25 µM
IC50 [1]: 1.98 µM
IC50 [5]: 0.45 µM

O=C1Nc2ccc(-c3csc(-c4ccccc4)n3)cc2/C1=C/c1cc2c([nH]1)CCCC2
IC50 [3]: 20.2 µM
IC50 [4]: 34.6 µM
IC50 [1]: 4.09 µM
IC50 [5]: 1.42 µM
IC50 [2]: 2.52 µM

Cc1cc(C)c(/C=C2\C(=O)Nc3cc(-c4cnc5ccccc5n4)ccc32)[nH]1
IC50 [6]: 18.2 µM
IC50 [1]: 8.8 µM
IC50 [5]: 5.83 µM
IC50 [2]: 2.54 µM

CCN(CC)CCNC(=O)c1c(C)[nH]c(/C=C2\C(=O)Nc3ccc(-c4csc(C5CCNC5)n4)cc32)c1C (configuration not stated)
IC50 [3]: 2.42 µM
IC50 [6]: 0.72 µM
IC50 [4]: 6.75 µM
IC50 [5]: 32.5 µM

Cc1[nH]c(/C=C2\C(=O)Nc3ccc(-c4csc(-c5ccccc5)n4)cc32)c(C)c1S(=O)(=O)N1CCCC1
IC50 [3]: 5.48 µM
IC50 [6]: 2.86 µM
IC50 [4]: 12.6 µM
IC50 [1]: 6.56 µM
IC50 [2]: 5.05 µM

CCOC(=O)c1[nH]c(/C=C2\C(=O)Nc3ccc(-c4csc(-c5ccccc5)n4)cc32)c2c1CCCC2
IC50 [4]: 0.83 µM
IC50 [1]: 2.91 µM
IC50 [2]: 1.6 µM

CCN(CC)CCNC(=O)c1c(C)[nH]c(/C=C2\C(=O)Nc3cc(-c4nccc5ccccc45)ccc32)c1C
IC50 [3]: 9.12 µM
IC50 [6]: 7.14 µM
IC50 [4]: 6.51 µM
IC50 [1]: 24.4 µM
IC50 [2]: 1.91 µM

Cc1cc(C)c(/C=C2\C(=O)Nc3ccc(-c4csc(-n5cccn5)n4)cc32)[nH]1
IC50 [3]: 20.8 µM
IC50 [6]: 9.76 µM
IC50 [4]: 9 µM
IC50 [1]: 27.2 µM
IC50 [5]: 16.2 µM

Cc1cc(C)c(/C=C2\C(=O)Nc3ccc(-c4ncccc4C)cc32)[nH]1
IC50 [6]: 22.4 µM
IC50 [4]: 7.95 µM
IC50 [1]: 41.1 µM
IC50 [2]: 0.01 µM

CCN(CC)CCNC(=O)c1c(C)[nH]c(/C=C2\C(=O)Nc3ccc(-c4n[nH]c5c(N)cccc45)cc32)c1C
IC50 [3]: 7.09 µM
IC50 [6]: 11.6 µM
IC50 [4]: 12 µM
IC50 [1]: 28.4 µM
IC50 [2]: 30.9 µM

Cc1ccc(-c2ccc3c(c2)/C(=C/c2[nH]c(C)cc2C)C(=O)N3)cn1
IC50 [6]: 25.8 µM
IC50 [4]: 24.9 µM
IC50 [2]: 0.01 µM

Cc1cc(C)c(/C=C2\C(=O)Nc3ccc(-c4cnc5cccnn45)cc32)[nH]1
IC50 [3]: 5.23 µM
IC50 [6]: 12.5 µM
IC50 [1]: 1.55 µM
IC50 [5]: 8.66 µM

CCN(CC)CCNC(=O)c1c(C)[nH]c(/C=C2\C(=O)Nc3cc(-c4ccc(-c5ccccc5)nc4)ccc32)c1C
IC50 [6]: 14.8 µM
IC50 [1]: 1.12 µM
IC50 [5]: 3.59 µM
IC50 [2]: 0.21 µM

CCN(CC)CCNC(=O)c1c(C)[nH]c(/C=C2\C(=O)Nc3ccc(-c4csc(-c5ccc(CCC(=O)O)cc5)n4)cc32)c1C
IC50 [1]: 4.88 µM
IC50 [5]: 4.21 µM

O=C1Nc2ccc(-c3csc(-c4ccncc4)n3)cc2/C1=C/c1ncc[nH]1
IC50 [3]: 3.42 µM
IC50 [6]: 14.8 µM
IC50 [4]: 0.29 µM
IC50 [5]: 2.6 µM
IC50 [2]: 9.21 µM

CCN(CC)CCNC(=O)c1c(C)[nH]c(/C=C2\C(=O)Nc3cc(-c4csc(-c5ccccc5)n4)ccc32)c1C
IC50 [3]: 1.8 µM
IC50 [1]: 0.6 µM
IC50 [5]: 3.73 µM
IC50 [2]: 0.19 µM

Cc1cc(C)c(/C=C2\C(=O)Nc3ccc(-c4cnc5ccccn45)cc32)[nH]1
IC50 [3]: 11.4 µM
IC50 [6]: 16.6 µM
IC50 [4]: 25.2 µM
IC50 [1]: 17 µM
IC50 [5]: 20.2 µM

Cc1cc(C)c(/C=C2\C(=O)Nc3ccc(-c4ccccn4)cc32)[nH]1
IC50 [2]: 0.02 µM

CCN(CC)CCNC(=O)c1c(C)[nH]c(/C=C2\C(=O)Nc3ccc(-c4cnc(SC)cn4)cc32)c1C
IC50 [3]: 5.96 µM
IC50 [6]: 6.06 µM
IC50 [4]: 12.3 µM
IC50 [5]: 30 µM

Reference: ChEMBL document CHEMBL3727348, “3-(aryl or heteroaryl) methyleneindolin-2-one derivatives as inhibitors of cancer stem cell pathway kinases for the treatment of cancer” (2014)
